Measured values reported in ChEMBL document CHEMBL4699558, “Lead optimization of 8-(methylamino)-2-oxo-1,2-dihydroquinolines as bacterial type II topoisomerase inhibitors” (Bioorg Med Chem, 2020).
Converted amounts (≈) assume the structure as drawn.

Legend:
DNA gyrase = DNA gyrase (Escherichia coli, UniProt P0AES4+P0AES6); test: Inhibition of Escherichia coli DNA gyrase by measuring supercoiling activity incubated for 60 mins by fluorescence based assay; format: protein-complex assay
[1] = Inhibition of Escherichia coli topoisomerase IV by measuring relaxation activity incubated for 30 mins by fluorescence based assay
Escherichia coli [2] = test: Antibacterial activity against Escherichia coli ATCC 25922 by CLSI method; format: functional
Escherichia coli [3] = test: Antibacterial activity against Escherichia coli ATCC 25922 in presence of PAbetaN by CLSI method; format: functional
Staphylococcus aureus [4] = test: Antibacterial activity against Staphylococcus aureus ATCC 29213 by CLSI method; format: functional
Enterococcus faecium [5] = test: Antibacterial activity against Enterococcus faecium ATCC 35667 by CLSI method; format: functional
Enterococcus faecalis [6] = test: Antibacterial activity against Enterococcus faecalis ATCC 29212 by CLSI method; format: functional
Streptococcus pneumoniae [7] = test: Antibacterial activity against Streptococcus pneumoniae ATCC 49619 by CLSI method; format: functional
Streptococcus anginosus = test: Antibacterial activity against Streptococcus anginosus ATCC 33397 by CLSI method; format: functional
Haemophilus influenzae = test: Antibacterial activity against Haemophilus influenzae ATCC 43095 by CLSI method; format: functional
Staphylococcus aureus [8] = test: Antibacterial activity against Methicillin-resistant Staphylococcus aureus by CLSI method; format: functional
Enterococcus faecium [9] = test: Antibacterial activity against vancomycin-resistant Enterococcus faecium ATCC 51559 by CLSI method; format: functional
Enterococcus faecalis [10] = test: Antibacterial activity against vancomycin-resistant Enterococcus faecalis ATCC 51575 by CLSI method; format: functional
Enterococcus = test: Antibacterial activity against Vancomycin-resistant Enterococcus by CLSI method; format: functional
Streptococcus pneumoniae [11] = test: Antibacterial activity against genotype penicillin-resistant Streptococcus pneumoniae by CLSI method; format: functional
Escherichia coli [12] = test: Antibacterial activity against Escherichia coli ATCC 25922 assessed as reduction in bacterial cell growth incubated for 18 hrs by CSLI based broth microdilution method; format: functional
Staphylococcus aureus [13] = test: Antibacterial activity against Staphylococcus aureus ATCC 29213 assessed as reduction in bacterial cell growth incubated for 18 hrs by CSLI based broth microdilution method; format: functional
Staphylococcus aureus [14] = test: Antibacterial activity against hospital-acquired Methicillin -resistant Staphylococcus aureus ATCC BAA-811 by CLSI method; format: functional
Staphylococcus aureus [15] = test: Antibacterial activity against community-acquired Methicillin -resistant Staphylococcus aureus ATCC BAA-1556 by CLSI method; format: functional
[16] = target: DNA topoisomerase 2-alpha (Homo sapiens, UniProt P11388); test: Inhibition of human topoisomerase 2alpha; format: ADME
[17] = target: Voltage-gated inwardly rectifying potassium channel KCNH2 (Homo sapiens, UniProt Q12809); test: Inhibition of human ERG expressed in CHO cells by Q-patch clamp assay
[18] = Cytotoxicity against human HepG2 cells assessed as reduction in cell viability at 10 uM incubated for 48 hrs by CCK-8 assay
[19] = Cytotoxicity against human HepG2 cells assessed as reduction in cell viability at 50 uM incubated for 48 hrs by CCK-8 assay
[20] = tested on: Peptostreptococcus anaerobius; test: Antibacterial activity against Peptostreptococcus anaerobius ATCC 27337 by CLSI method; format: functional
Bacteroides fragilis = test: Antibacterial activity against Bacteroides fragilis ATCC 25285 by CLSI method; format: functional
[21] = tested on: Prevotella melaninogenica; test: Antibacterial activity against Prevotella melaninogenica JCM6325 by CLSI method; format: functional
Porphyromonas gingivalis = test: Antibacterial activity against Porphyromonas gingivalis JCM8525 by CLSI method; format: functional
Fusobacterium nucleatum = test: Antibacterial activity against Fusobacterium nucleatum JCM8532 by CLSI method; format: functional

Chain of DNA topoisomerase 2-alpha (P11388 whole entry): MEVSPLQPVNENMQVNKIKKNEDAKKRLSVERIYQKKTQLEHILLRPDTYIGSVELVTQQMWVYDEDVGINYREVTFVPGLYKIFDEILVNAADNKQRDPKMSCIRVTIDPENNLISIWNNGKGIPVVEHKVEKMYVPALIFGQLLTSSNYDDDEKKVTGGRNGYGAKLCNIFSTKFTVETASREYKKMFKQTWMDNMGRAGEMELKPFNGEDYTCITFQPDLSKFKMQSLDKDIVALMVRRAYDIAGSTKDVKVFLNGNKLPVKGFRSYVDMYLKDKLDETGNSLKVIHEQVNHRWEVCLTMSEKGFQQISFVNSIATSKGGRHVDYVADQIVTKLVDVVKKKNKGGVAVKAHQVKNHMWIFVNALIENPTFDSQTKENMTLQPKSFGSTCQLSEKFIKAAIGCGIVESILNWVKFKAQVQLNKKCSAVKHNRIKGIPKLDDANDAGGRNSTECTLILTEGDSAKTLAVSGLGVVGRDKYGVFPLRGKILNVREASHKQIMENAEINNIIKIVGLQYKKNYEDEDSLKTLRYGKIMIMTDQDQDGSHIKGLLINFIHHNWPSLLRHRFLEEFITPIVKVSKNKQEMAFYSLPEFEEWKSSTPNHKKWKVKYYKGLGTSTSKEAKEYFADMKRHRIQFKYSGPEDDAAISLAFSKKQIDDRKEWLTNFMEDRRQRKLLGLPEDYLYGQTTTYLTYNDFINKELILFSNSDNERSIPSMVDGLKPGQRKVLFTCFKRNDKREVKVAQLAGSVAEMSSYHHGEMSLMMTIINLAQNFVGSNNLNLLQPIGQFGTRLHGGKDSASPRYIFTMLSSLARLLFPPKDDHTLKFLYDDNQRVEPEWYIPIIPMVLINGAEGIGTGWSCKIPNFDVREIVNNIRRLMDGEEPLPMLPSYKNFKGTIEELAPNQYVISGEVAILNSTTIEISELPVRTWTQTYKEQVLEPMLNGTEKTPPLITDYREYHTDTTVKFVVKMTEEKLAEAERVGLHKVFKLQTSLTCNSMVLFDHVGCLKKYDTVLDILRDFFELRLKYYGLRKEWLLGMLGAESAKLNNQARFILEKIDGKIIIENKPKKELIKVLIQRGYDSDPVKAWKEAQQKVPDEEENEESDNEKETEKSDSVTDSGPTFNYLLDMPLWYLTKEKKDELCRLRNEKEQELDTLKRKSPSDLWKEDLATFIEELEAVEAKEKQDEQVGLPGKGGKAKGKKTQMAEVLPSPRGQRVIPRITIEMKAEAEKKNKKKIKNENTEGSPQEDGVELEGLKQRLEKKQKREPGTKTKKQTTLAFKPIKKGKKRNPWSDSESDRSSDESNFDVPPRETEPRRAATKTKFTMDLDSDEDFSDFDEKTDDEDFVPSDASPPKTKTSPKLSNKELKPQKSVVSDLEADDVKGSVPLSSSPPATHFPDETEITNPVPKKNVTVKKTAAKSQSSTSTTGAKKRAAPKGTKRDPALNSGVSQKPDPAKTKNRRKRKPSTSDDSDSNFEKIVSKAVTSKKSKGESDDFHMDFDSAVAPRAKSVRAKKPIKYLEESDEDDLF
Chain of Voltage-gated inwardly rectifying potassium channel KCNH2 (Q12809 whole entry): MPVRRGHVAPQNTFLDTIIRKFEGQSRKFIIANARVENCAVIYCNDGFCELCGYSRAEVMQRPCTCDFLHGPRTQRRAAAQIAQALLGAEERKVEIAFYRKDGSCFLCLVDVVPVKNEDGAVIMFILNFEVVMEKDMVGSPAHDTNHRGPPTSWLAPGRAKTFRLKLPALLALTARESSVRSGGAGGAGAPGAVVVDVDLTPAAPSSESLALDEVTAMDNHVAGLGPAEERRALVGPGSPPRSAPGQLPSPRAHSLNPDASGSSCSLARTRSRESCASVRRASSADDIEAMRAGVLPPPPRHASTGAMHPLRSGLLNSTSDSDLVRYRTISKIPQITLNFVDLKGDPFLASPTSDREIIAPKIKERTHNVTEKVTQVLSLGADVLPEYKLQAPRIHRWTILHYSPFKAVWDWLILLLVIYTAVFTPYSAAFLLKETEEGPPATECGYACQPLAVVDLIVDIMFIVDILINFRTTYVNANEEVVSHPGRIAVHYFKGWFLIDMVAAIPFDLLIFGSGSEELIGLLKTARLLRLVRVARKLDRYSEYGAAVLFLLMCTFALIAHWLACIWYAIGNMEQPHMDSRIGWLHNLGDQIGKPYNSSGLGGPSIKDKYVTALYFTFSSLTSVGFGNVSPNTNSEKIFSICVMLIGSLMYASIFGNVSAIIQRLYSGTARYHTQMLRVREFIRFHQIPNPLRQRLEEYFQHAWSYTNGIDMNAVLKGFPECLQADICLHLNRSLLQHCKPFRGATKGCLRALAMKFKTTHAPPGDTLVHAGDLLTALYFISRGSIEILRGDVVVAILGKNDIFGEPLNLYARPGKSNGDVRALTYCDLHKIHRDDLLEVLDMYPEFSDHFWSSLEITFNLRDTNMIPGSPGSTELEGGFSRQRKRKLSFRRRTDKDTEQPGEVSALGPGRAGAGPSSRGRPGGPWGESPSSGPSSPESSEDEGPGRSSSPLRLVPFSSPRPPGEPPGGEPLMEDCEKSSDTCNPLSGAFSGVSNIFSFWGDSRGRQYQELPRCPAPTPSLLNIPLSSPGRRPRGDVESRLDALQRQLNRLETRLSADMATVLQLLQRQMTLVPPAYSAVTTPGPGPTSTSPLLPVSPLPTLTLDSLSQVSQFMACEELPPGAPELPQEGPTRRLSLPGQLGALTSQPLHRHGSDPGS

SMILES	IC50 (DNA gyrase)	IC50 [1]	MIC (Escherichia coli [2])	MIC (Escherichia coli [3])	MIC (Staphylococcus aureus [4])	MIC (Enterococcus faecalis [6])	MIC (Streptococcus pneumoniae [7])	MIC (Streptococcus anginosus)	MIC (Enterococcus faecium [9])	MIC (Enterococcus faecalis [10])	also measured
CNc1cc(F)cc2cc(C(=O)Nc3ccc(C(=O)NCCN4CCOCC4)cc3)c(=O)[nH]c12	7.29 nM	1300 nM	4 µg/mL (≈ 8.56 µM)	0.06 µg/mL	> 16 µg/mL	–	–	–	–	–	–
CNc1cc(F)cc2c(O)c(C(=O)Nc3ccc(C(=O)O)cc3CN3CCCCC3)c(=O)[nH]c12.O=C(O)C(F)(F)F	7.53 nM	4930 nM	8 µg/mL	≤ 0.015 µg/mL	–	0.12 µg/mL	0.5 µg/mL	0.5 µg/mL	–	–	MIC (Enterococcus faecium [5]): 1 µg/mL; MIC (Haemophilus influenzae): 0.12 µg/mL
CN[C@H](CC(C)C)C(=O)N[C@H]1C(=O)N[C@@H](CC(N)=O)C(=O)N[C@H]2C(=O)N[C@H]3C(=O)N[C@H](C(=O)N[C@H](C(=O)O)c4cc(O)cc(O)c4-c4cc3ccc4O)[C@H](O)c3ccc(c(Cl)c3)Oc3cc2cc(c3O[C@@H]2O[C@H](CO)[C@@H](O)[C@H](O)[C@H]2O[C@H]2C[C@](C)(N)[C@H](O)[C@H](C)O2)Oc2ccc(cc2Cl)[C@H]1O [VANCOMYCIN]	–	–	> 128 µg/mL	–	–	2 µg/mL (≈ 1.38 µM)	0.25 µg/mL (≈ 0.173 µM)	0.5 µg/mL (≈ 0.345 µM)	> 128 µg/mL	> 128 µg/mL	MIC50 (Staphylococcus aureus [8]): 1 µg/mL (≈ 0.69 µM); MIC90 (Staphylococcus aureus [8]): 2 µg/mL (≈ 1.38 µM); MIC50 (Enterococcus): > 128 µg/mL; MIC90 (Enterococcus): > 128 µg/mL; MIC50 (Streptococcus pneumoniae [11]): 0.25 µg/mL (≈ 0.173 µM); MIC90 (Streptococcus pneumoniae [11]): 0.5 µg/mL (≈ 0.345 µM)
CO[C@@H]1[C@@H](OC(N)=O)[C@@H](O)[C@H](Oc2ccc3c(O)c(NC(=O)c4ccc(O)c(CC=C(C)C)c4)c(=O)oc3c2C)OC1(C)C [NOVOBIOCIN]	–	–	–	–	–	–	–	–	–	–	MIC (Escherichia coli [12]): 64 µg/mL (≈ 104 µM); MIC (Staphylococcus aureus [13]): 0.13 µg/mL (≈ 0.212 µM)
CNc1cc(F)cc2c(O)c(C(=O)Nc3ccc(C(=O)NS(=O)(=O)N(C)C)cc3)c(=O)[nH]c12	2.66 nM	127 nM	1 µg/mL (≈ 2.09 µM)	≤ 0.015 µg/mL	–	0.015 µg/mL (≈ 0.0314 µM)	0.06 µg/mL (≈ 0.126 µM)	0.12 µg/mL (≈ 0.251 µM)	0.03 µg/mL (≈ 0.0628 µM)	0.015 µg/mL (≈ 0.0314 µM)	MIC (Staphylococcus aureus [14]): 1 µg/mL (≈ 2.09 µM); MIC (Staphylococcus aureus [15]): 1 µg/mL (≈ 2.09 µM); MIC (Enterococcus faecium [5]): 0.03 µg/mL (≈ 0.0628 µM); MIC (Haemophilus influenzae): ≤ 0.015 µg/mL; IC50 [16]: 20900 nM; IC50 [17]: > 30000 nM; cytotoxicity at 48 h, 10 µM ([18]; HepG2 cells): 3.61%; cytotoxicity at 48 h, 50 µM ([19]; HepG2 cells): 38%
CCCCCCCCCC(=O)N[C@@H](Cc1c[nH]c2ccccc12)C(=O)N[C@H](CC(N)=O)C(=O)N[C@@H](CC(=O)O)C(=O)N[C@@H]1C(=O)NCC(=O)N[C@@H](CCCN)C(=O)N[C@@H](CC(=O)O)C(=O)N[C@H](C)C(=O)N[C@@H](CC(=O)O)C(=O)NCC(=O)N[C@H](CO)C(=O)N[C@@H]([C@H](C)CC(=O)O)C(=O)N[C@@H](CC(=O)c2ccccc2N)C(=O)O[C@@H]1C	–	–	–	–	–	–	–	–	–	–	MIC50 (Staphylococcus aureus [8]): 1 µg/mL (≈ 0.617 µM); MIC90 (Staphylococcus aureus [8]): 1 µg/mL (≈ 0.617 µM); MIC50 (Enterococcus): 2 µg/mL (≈ 1.23 µM); MIC90 (Enterococcus): 4 µg/mL (≈ 2.47 µM)
CNc1cc(F)cc2cc(C(=O)Nc3ccc(C(=O)O)cc3CN(C)C3CCCCC3)c(=O)[nH]c12.Cl	0.53 nM	47.4 nM	8 µg/mL	≤ 0.03 µg/mL	2 µg/mL	–	–	–	–	–	–
CNc1cc(F)cc2cc(C(=O)Nc3cnc(C(=O)O)nc3)c(=O)[nH]c12	0.95 nM	32.5 nM	> 16 µg/mL	> 16 µg/mL	> 16 µg/mL	–	–	–	–	–	–
CN(C)c1cc(NC(=O)CNC(C)(C)C)c(O)c2c1C[C@H]1C[C@H]3[C@H](N(C)C)C(O)=C(C(N)=O)C(=O)[C@@]3(O)C(O)=C1C2=O [TIGECYCLINE]	–	–	0.25 µg/mL (≈ 0.427 µM)	–	0.25 µg/mL (≈ 0.427 µM)	0.12 µg/mL (≈ 0.205 µM)	0.06 µg/mL (≈ 0.102 µM)	0.06 µg/mL (≈ 0.102 µM)	0.12 µg/mL (≈ 0.205 µM)	0.25 µg/mL (≈ 0.427 µM)	MIC (Staphylococcus aureus [8]): 0.25 µg/mL (≈ 0.427 µM); MIC50 (Staphylococcus aureus [8]): 0.25 µg/mL (≈ 0.427 µM); MIC90 (Staphylococcus aureus [8]): 2 µg/mL (≈ 3.41 µM); MIC (Staphylococcus aureus [14]): 0.25 µg/mL (≈ 0.427 µM); MIC (Staphylococcus aureus [15]): 0.5 µg/mL (≈ 0.854 µM); MIC (Enterococcus faecium [5]): 0.06 µg/mL (≈ 0.102 µM); MIC50 (Enterococcus): 0.25 µg/mL (≈ 0.427 µM); MIC90 (Enterococcus): 0.5 µg/mL (≈ 0.854 µM)
CO/N=C(\C(=O)N[C@@H]1C(=O)N2C(C(=O)O)=C(CSc3nc(=O)c(O)nn3C)CS[C@H]12)c1csc(N)n1 [CEFTRIAXONE]	–	–	–	–	–	–	–	–	–	–	MIC [20]: 0.5 µg/mL (≈ 0.902 µM); MIC (Bacteroides fragilis): 64 µg/mL (≈ 115 µM); MIC [21]: 1 µg/mL (≈ 1.8 µM); MIC (Porphyromonas gingivalis): ≤ 0.12 µg/mL; MIC (Fusobacterium nucleatum): 0.5 µg/mL (≈ 0.902 µM); MIC50 (Streptococcus pneumoniae [11]): 1 µg/mL (≈ 1.8 µM); MIC90 (Streptococcus pneumoniae [11]): 4 µg/mL (≈ 7.21 µM)
CNc1cc(F)cc2cc(C(=O)Nc3ccc(CO)cc3CN(CCO)C3CCCCC3)c(=O)[nH]c12	1.6 nM	–	–	≤ 0.03 µg/mL	1 µg/mL (≈ 2.01 µM)	0.03 µg/mL (≈ 0.0604 µM)	0.06 µg/mL (≈ 0.121 µM)	0.06 µg/mL (≈ 0.121 µM)	0.25 µg/mL (≈ 0.503 µM)	0.015 µg/mL (≈ 0.0302 µM)	MIC (Staphylococcus aureus [14]): 1 µg/mL (≈ 2.01 µM); MIC (Staphylococcus aureus [15]): 2 µg/mL (≈ 4.03 µM); IC50 [16]: > 100000 nM; cytotoxicity at 48 h, 10 µM ([18]; hepg2): -15.3%; cytotoxicity at 48 h, 50 µM ([19]; hepg2): 98.5%; MIC (Bacteroides fragilis): > 32 µg/mL; MIC [21]: > 32 µg/mL; MIC (Porphyromonas gingivalis): 4 µg/mL (≈ 8.06 µM)
